In brackets after ≈: the same amount, converted by molar mass. Read-outs that look alike come from different tables or passages of the source.
Key:
Format in all cases: cell-based
[1] = test system: S. aureus ATCC43300; experiment: MIC and MBC determination by broth micro-dilution against S. aureus
[2] = test system: S. aureus; experiment: Checkerboard assay of interactions between LC-PUFAs and topical antimicrobial agents; settings: n = 2, mean ± one standard deviation
Method: Checkerboard assays were performed according to the standard protocol published by the American Society for Microbiology to investigate the existence of synergistic antimicrobial interactions between the three LC-PUFAs and two anti-acne agents (BPO and SA) against P. acnes. Further checkerboards were performed against S. aureus for BPO, SA and four antibiotics used to treat topical staphylococcal infections (FUS, MUP, NEO and POL) with these agents being assessed separately against each of the three LC-PUFAs. Doubling dilutions of each compound were prepared in TSA or SBB and dispensed to 96-well plates in the standard checkerboard pattern. […] Control wells were dispensed with medium supplemented with the greatest concentration of solvent used in any well, while negative control wells contained just medium. Inoculums were prepared to 1×10^7 CFU/mL as above. Each well (except for negative controls) was inoculated with 5 μL of bacterial suspension. Plates were incubated as for MIC determinations above and then the presence of bacterial growth was determined for each well according to the clarity of the medium and/or the presence of suspended colonies. The FIC for each well was determined for each interaction and the lowest FICs from duplicate checkerboard assays were used to calculate a mean value that permitted interpretation of the nature of interaction between each combination of compounds Using the pre-determined MIC values, checkerboard assays were performed to detect the interactions between the LC-PUFAs and the clinical antimicrobial drugs against the growth of S. aureus. The lowest fractional inhibitory concentration (FIC) on duplicate checkerboards was used to calculate a mean FIC for each interaction, and a mean FIC ≦0.5 was defined as synergy while a mean FIC ≧4 was defined as antagonism. Against S. aureus, none of the combinations gave a mean FIC ≧4, indicating no antagonism of efficacy between the LC-PUFAs and the clinical antimicrobial agents (Table 4). […] (Table 4)

[3] = test system: P. acnes NCTC737; experiment: MIC and MBC determination by broth micro-dilution against P. acnes
[4] = test system: ten diverse isolates of S. aureus; experiment: MIC50 and MBC50 against ten diverse isolates of S. aureus; settings: Staphylococcus aureus; for MIC50: concentration required to inhibit 50% of ten S. aureus isolates; for MBC: concentration required to kill 50% of ten S. aureus isolates
[5] = Staphylococcus aureus, S. aureus ATCC43300, Mueller-Hinton broth, 18-20 h, LC-PUFAs (Table 1), read-out: MIC
[6] = Staphylococcus aureus, S. aureus ATCC43300, kills ≧99.9% of initial inoculum, LC-PUFAs (Table 1), read-out: MBC
[7] = Cutibacterium acnes, P. acnes NCTC737, kills ≧99.9% of initial inoculum, LC-PUFAs (Table 1), read-out: MBC
[8] = Cutibacterium acnes, P. acnes NCTC737, supplemented brucella broth, 48 h, LC-PUFAs (Table 1), read-out: MIC
[9] = S. aureus, clinical antimicrobial agents (Table 3)
[10] = P. acnes, clinical antimicrobial agents (Table 3)

| MIC50 [4] [µg/mL] | MIC [1, 5] [µg/mL] | MIC [3, 8] [µg/mL] | MIC [1, 9] [µg/mL] | Molecule | ΣFIC ([2]; in combination with DHA) | ΣFIC ([2]; in combination with EPA) | ΣFIC ([2]; in combination with GLA) | MBC [4] [µg/mL] | MBC [1, 6] [µg/mL] | MBC [3, 7] [µg/mL] | MBC [1, 9] [µg/mL] | further results |
| --- | --- | --- | --- | --- | --- | --- | --- | --- | --- | --- | --- | --- |
| – | – | – | – | O=C(OOC(=O)c1ccccc1)c1ccccc1 [BPO, benzoyl peroxide] | 2.00 ± 0.00 | 1.00 ± 0.00 | 0.56 ± 0.09 | – | – | – | – | MBC ([1]; Staphylococcus aureus, ATCC43300, S. aureus, clinical antimicrobial agents (Table 3), read-out: MBC): 512 µg/mL (≈ 2110 µM); MIC ([1]; Staphylococcus aureus, ATCC43300, S. aureus, clinical antimicrobial agents (Table 3), read-out: MIC): 512 µg/mL (≈ 2110 µM); MBC ([3]; Cutibacterium acnes, NCTC737, P. acnes, clinical antimicrobial agents (Table 3), read-out: MBC): > 4100 µg/mL; MIC ([3]; Cutibacterium acnes, NCTC737, P. acnes, clinical antimicrobial agents (Table 3), read-out: MIC): 64 µg/mL (≈ 264 µM) |
| 128 (≈ 390 µM) | 128 (≈ 390 µM) | 32 (≈ 97.4 µM) | – | CC/C=C\C/C=C\C/C=C\C/C=C\C/C=C\C/C=C\CCC(=O)O [DHA, (4Z,7Z,10Z,13Z,16Z,19Z)-docosa-4,7,10,13,16,19-hexaenoic acid] | – | – | – | 256 (≈ 779 µM) | 128 (≈ 390 µM) | > 4100 | – | – |
| 256 (≈ 846 µM) | 128 (≈ 423 µM) | 128 (≈ 423 µM) | – | CC/C=C\C/C=C\C/C=C\C/C=C\C/C=C\CCCC(=O)O [EPA, all-cis-5,8,11,14,17-eicosapentaenoic acid] | – | – | – | 256 (≈ 846 µM) | 256 (≈ 846 µM) | > 4100 | – | – |
| – | – | – | 0.25 (≈ 0.484 µM) | CC(=O)O[C@H]1C[C@@]2(C)[C@@H](C[C@@H](O)[C@H]3[C@@]4(C)CC[C@@H](O)[C@@H](C)[C@@H]4CC[C@@]32C)/C1=C(\CCC=C(C)C)C(=O)O [FUS] | 2.00 ± 0.00 | 1.13 ± 0.18 | 1.50 ± 0.71 | – | – | – | 8 (≈ 15.5 µM) | – |
| 512 (≈ 1840 µM) | 512 (≈ 1840 µM) | 64 (≈ 230 µM) | – | CCCCC/C=C\C/C=C\C/C=C\CCCCC(=O)O [GLA, all-cis-6,9,12-octadecatrienoic acid] | – | – | – | 512 (≈ 1840 µM) | 512 (≈ 1840 µM) | > 4100 | – | – |
| – | – | – | 0.25 (≈ 0.499 µM) | C/C(=C\C(=O)OCCCCCCCCC(=O)O)C[C@@H]1OC[C@H](C[C@@H]2O[C@H]2[C@@H](C)[C@H](C)O)[C@@H](O)[C@H]1O [MUP] | 1.50 ± 0.00 | 2.00 ± 0.00 | 2.25 ± 0.35 | – | – | – | 16 (≈ 32 µM) | – |
| – | – | – | 32 (≈ 52.1 µM) | NC[C@@H]1O[C@H](O[C@H]2[C@@H](O)[C@H](O[C@@H]3[C@@H](O)[C@H](N)C[C@H](N)[C@H]3O[C@H]3O[C@H](CN)[C@@H](O)[C@H](O)[C@H]3N)O[C@@H]2CO)[C@H](N)[C@@H](O)[C@@H]1O [NEO, neomycin] | 0.56 ± 0.09 | 0.38 ± 0.00 | 0.19 ± 0.00 | – | – | – | 128 (≈ 208 µM) | – |
| – | – | – | 1024 (≈ 7410 µM) | O=C(O)c1ccccc1O [SA] | 1.25 ± 0.35 | 0.88 ± 0.18 | 0.88 ± 0.18 | – | – | – | 2048 (≈ 14800 µM) | MBC [3, 10]: >4096 µg/mL; MIC [3, 10]: 64 µg/mL (≈ 463 µM) |

| Molecule | MIC50 [4] [µg/mL] | MIC [1, 5] [µg/mL] | MIC [3, 8] [µg/mL] | MIC [1, 9] [µg/mL] | ΣFIC ([2]; in combination with DHA) | ΣFIC ([2]; in combination with EPA) | ΣFIC ([2]; in combination with GLA) | MBC [4] [µg/mL] | MBC [1, 6] [µg/mL] | MBC [3, 7] [µg/mL] | MBC [1, 9] [µg/mL] | further results |
| --- | --- | --- | --- | --- | --- | --- | --- | --- | --- | --- | --- | --- |
| polymyxin B | – | – | – | 16 | 2.00 ± 0.00 | 2.00 ± 0.00 | 1.06 ± 0.62 | – | – | – | 128 | – |

Source: US20150080329A1, “PHARMACEUTICAL COMPOSITIONS COMPRISING DHA, EPA, AND/OR GLA AND AN ANTIBIOTIC AGENT AND METHODS OF USE THEREOF” (priority 2013, published 2015)
